In US20250170104A1, “INHIBITORS OF PSEUDOMONAS AERUGINOSA VIRULENCE FACTOR Lasß” (priority 2022, published 2025):
pIC50: −log10 of the molar value.

Tests used:
[1] = Kinetic turbidimetric solubility assay; type: physicochemical; settings: PBS, aqueous buffer, kinetic from dmso stock
Experimental: The desired compounds were sequentially diluted in DMSO in a 96-well plate. 1.5 μL of each well were transferred into another 96-well plate and mixed with 148.5 μL of PBS. Plates were shaken for 5 min at 600 rpm at room temperature, and the absorbance at 620 nm was measured. Absorbance values were normalized by blank subtraction and plotted using GraphPad Prism 8.4.2 (GraphPad Software, San Diego, CA, USA). Solubility (S) was determined based on the First X value of AUC function using a threshold of 0.005.

MMP1 = MMP1 (Homo sapiens (Human), UniProt P03956); experiment: Selectivity assay: inhibition of MMPs; type: biochemical
MMP1, sequence (P03956 100-469): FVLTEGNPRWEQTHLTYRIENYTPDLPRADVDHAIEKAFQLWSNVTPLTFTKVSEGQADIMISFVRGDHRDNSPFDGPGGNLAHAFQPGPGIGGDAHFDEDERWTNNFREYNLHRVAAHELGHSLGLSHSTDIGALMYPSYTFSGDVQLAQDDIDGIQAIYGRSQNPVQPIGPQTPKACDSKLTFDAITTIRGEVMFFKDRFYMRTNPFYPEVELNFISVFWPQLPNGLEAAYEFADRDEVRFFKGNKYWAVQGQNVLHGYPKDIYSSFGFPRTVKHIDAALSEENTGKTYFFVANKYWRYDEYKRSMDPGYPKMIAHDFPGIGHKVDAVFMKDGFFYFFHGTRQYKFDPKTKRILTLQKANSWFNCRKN
Experimental: (§1) MMPs-1, -2, -3, -7, -8 and -14 along with the SensoLyte 520 Generic MMP Activity Kit*Fluorimetric* were purchased from AnaSpec (Fremont, CA, USA). The assay was performed as described previously (Schönauer E, Kany A M, Haupenthal J, Hüsecken K, Hoppe I J, Voos K, et al. Discovery of a Potent Inhibitor Class with High Selectivity toward Clostridial Collagenases. J Am Chem Soc. 2017 Sep. 13; 139(36):12696-703) using batimastat as a positive control according to the guidelines of the manufacturer.

MMP2 = MMP2 (Homo sapiens (Human), UniProt P08253); experiment: Selectivity assay: inhibition of MMPs; type: biochemical
MMP2, sequence (P08253 110-660): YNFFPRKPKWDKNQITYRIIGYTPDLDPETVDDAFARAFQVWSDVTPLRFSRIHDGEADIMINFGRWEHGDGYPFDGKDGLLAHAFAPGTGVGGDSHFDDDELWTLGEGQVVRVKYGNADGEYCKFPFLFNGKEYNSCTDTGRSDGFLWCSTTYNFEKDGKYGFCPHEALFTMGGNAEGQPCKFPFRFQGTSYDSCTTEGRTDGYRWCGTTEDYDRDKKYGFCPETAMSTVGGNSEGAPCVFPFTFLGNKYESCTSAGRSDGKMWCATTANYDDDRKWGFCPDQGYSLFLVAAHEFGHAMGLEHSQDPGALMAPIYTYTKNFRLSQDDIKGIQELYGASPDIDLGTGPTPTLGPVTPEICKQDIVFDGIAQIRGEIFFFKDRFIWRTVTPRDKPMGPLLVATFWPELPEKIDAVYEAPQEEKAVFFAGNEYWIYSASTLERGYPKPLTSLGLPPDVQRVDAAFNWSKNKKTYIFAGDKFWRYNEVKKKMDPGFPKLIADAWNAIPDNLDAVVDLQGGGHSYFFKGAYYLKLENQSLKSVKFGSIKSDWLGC
Experimental: as §1

MMP3 = MMP3 (Homo sapiens (Human), UniProt P08254); experiment: Selectivity assay: inhibition of MMPs; type: biochemical
MMP3, sequence (P08254 100-477): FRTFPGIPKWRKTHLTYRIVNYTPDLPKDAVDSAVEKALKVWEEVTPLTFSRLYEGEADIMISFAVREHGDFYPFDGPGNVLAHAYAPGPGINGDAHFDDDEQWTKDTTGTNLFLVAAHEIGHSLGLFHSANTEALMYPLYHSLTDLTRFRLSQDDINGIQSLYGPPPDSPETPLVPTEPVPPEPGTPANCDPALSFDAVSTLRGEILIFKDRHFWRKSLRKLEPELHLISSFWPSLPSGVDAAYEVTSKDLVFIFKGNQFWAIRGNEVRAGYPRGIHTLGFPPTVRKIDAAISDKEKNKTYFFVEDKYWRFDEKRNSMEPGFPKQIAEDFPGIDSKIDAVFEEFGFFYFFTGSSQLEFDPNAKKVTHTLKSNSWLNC
Experimental: as §1

ADAM-17 (TACE) = ADAM-17 (TACE) (Homo sapiens (Human), UniProt P78536); experiment: ADAM-17 (TACE) inhibitor screening assay; type: biochemical; settings: read-out: Selectivity IC50 TACE
ADAM-17 (TACE), sequence (P78536 whole entry, looked up): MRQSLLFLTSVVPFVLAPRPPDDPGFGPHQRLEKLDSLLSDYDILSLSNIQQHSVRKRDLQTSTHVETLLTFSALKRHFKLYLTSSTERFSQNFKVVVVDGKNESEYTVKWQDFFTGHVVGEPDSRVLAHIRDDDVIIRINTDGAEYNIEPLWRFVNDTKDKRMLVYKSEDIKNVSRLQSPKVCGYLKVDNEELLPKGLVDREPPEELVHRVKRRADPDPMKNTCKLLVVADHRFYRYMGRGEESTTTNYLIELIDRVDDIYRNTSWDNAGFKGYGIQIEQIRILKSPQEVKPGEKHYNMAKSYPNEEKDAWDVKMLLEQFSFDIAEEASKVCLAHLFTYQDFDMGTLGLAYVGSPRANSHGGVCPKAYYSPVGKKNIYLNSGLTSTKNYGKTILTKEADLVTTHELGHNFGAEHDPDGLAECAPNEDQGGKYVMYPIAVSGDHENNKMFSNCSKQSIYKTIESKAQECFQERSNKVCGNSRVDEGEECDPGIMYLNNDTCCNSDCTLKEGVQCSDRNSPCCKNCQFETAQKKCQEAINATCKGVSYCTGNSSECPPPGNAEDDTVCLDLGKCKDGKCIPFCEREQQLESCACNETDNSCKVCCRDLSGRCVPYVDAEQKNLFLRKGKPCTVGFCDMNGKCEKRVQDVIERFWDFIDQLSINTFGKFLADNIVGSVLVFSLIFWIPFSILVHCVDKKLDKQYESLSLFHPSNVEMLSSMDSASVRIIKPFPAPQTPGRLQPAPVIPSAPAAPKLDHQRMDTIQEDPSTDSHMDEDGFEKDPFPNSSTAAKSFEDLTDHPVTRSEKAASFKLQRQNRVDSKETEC
Experimental: The ADAM-17 (TACE) Inhibitor Screening Assay Kit was purchased from Sigma-Aldrich. The assay was performed according to the guidelines of the manufacturer using ilomastat as a positive control. Fluorescence signals were measured in a CLARIOstar plate reader (BMG Labtech).

P. aeruginosa PA-14 = experiment: MIC determination assay / antibacterial activity; type: cell-based; settings: Pseudomonas aeruginosa, PA14
Experimental: Assays regarding the determination of the minimum inhibitory concentration (MIC) were performed as described previously (Elgaher W A M, Fruth M, Groh M, Haupenthal J, Hartmann R W. Expanding the scaffold for bacterial RNA polymerase inhibitors: design, synthesis and structure-activity relationships of ureido-heterocyclic-carboxylic acids. RSC Adv. 2013 Dec. 3; 4(5):2177-94). The experiments were based on the P. aeruginosa strain PA14. For the case that no MIC value could be determined due to activity reasons, percentage (%) inhibition at 100 μM (or lower, depending on the solubility of the compounds) was calculated. The OD600 was measured 0 and 16 h after inhibitor addition in a CLARIOstar Platereader (BMG Labtech, Ortenberg, Germany).

purified LasB = purified LasB (Pseudomonas aeruginosa (strain ATCC 15692 / DSM 22644 / CIP 104116 / JCM 14847 / LMG 12228 / 1C / PRS 101 / PAO1), UniProt P14756); experiment: Ex vivo lung homogenate assay with purified LasB; type: biochemical
purified LasB, sequence (P14756 198-498): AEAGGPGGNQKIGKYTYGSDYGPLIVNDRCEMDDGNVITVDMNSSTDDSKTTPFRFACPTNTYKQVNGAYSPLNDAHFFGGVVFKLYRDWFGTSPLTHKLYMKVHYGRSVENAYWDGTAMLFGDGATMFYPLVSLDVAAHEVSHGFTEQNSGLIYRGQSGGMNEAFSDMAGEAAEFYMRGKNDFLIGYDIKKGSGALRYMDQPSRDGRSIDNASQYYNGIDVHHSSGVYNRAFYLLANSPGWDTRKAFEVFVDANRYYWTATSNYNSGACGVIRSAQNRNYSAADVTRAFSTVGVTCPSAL
Experimental: The lung homogenate was prepared from pig lung, which was stored at −80° C. After thawing the lung tissue was cut into pieces of approximately 1.5 cm diameter and 0.5 to 1 cm thickness. Subsequently the bits were flash frozen in liquid nitrogen and lyophilized for 48 h.
1.2 g dried tissue was then ball milled using an IKA Tube Drive and the respective 50 mL ball milling tubes. 20 steel balls were used with target rpm of 6000, reversing the spinning direction every 30 seconds for a total of 10 min. After 10 min the tube was detached and inverted to loosen the powder. The ball milling was repeated with the same setup twice again.
To the powdery tissue 50 mL of a 10 mM Tris buffer including 2 mM CaCl2 with a pH of 8.0 was added and the IKA Tube Drive used again with the same settings as described before for 10 min to disperse the tissue powder in the aqueous buffer. The yielded lung homogenate was pipetted into 15 mL falcons and stored at −80° C. until further use.
To perform the LasB activity/inhibition assay a compound dilution was prepared in DMSO yielding a 100 fold concentration of the final concentration in the assay. LasB was diluted from a higher stock solution to a 6 μM stock in the same buffer as used for the lung homogenate. The assay was performed in Eppis. With a stepper pipette 10 μL of the prepared LasB solution was added to the Eppis to yield a final protein concentration of 300 nM. Then 188 μL of thawed lung homogenate was added with a stepper pipette. Finally, 2 μL of the 100 fold compound dilutions were added and mixed by pipetting up and down. The Eppis were incubated at 37° C. with a shaking speed of 1000 rpm for 4 h.
After 4 h, the Eppis were centrifuged at a speed of 14,000 rpm, 4° C. for 10 min to separate the soluble cleaved Elastin fragments from the non-cleaved insoluble part. 100 μL of the obtained supernatant was transferred to new Eppis, and the same volume of concentrated hydrochloric acid added. […]
Peak areas and response ratios were calculated using Xcalibur Quan browser with Amprolium set as internal standard. […]

CC(C)CC(C(=O)NO)C(=O)Nc1ccc(Cn2cc(CNS(=O)(=O)CC(C)C)nn2)cc1 (stereo not shown) [Compound 169, 2-(Hydroxycarbamoyl)-N-[4-[[4-[(isobutylsulfonylamino)methyl]triazol-1-yl]methyl]phenyl]-4-methyl-pentanamide]
solubility at 5 min [1]: > 200 µM
pIC50 (MMP1): < 4.00
pIC50 (MMP2): < 4.00
pIC50 (MMP3): < 4.00
pIC50 (ADAM-17 (TACE)): < 4.00
pIC50 (P. aeruginosa PA-14): < 4.00
pIC50 (purified LasB): 7.11
